{"source": "patent US6004905A", "about": "“Hyperabas: biologically active abscisic acid analogs with unsaturated carbon substituents at the 8'-methyl or 9'-methyl carbon atoms” (National Research Council of Canada, priority 1998, dated 1999)", "key": {"wheat seedlings": {"tested_on": "wheat seedlings", "assay": "Transpiration in wheat seedlings", "type": "in vivo, Triticum aestivum L. cv Katepwa", "details": "for reduction in transpiration: (+)-forms of methyl esters, 100 μM, 3 hours (FIG. 8); for reduction of transpiration (summary in words): in vivo; for EC50: Triticum aestivum, 3 h, intact wheat seedlings, three hours after application, read-out: concentration to reduce the transpiration rate to 50% (TR50)", "excerpt": "ABA is a key signal molecule involved in regulating transpiration in plants (W. J. Davies T. A. Mansfield 1988 Abscisic acid and drought resistance in plants ISI Atlas of Science: Animal and Plant Sciences 0894-3761 p. 263-269). […] This difference in activity is shown in FIG. 4 in which the % transpiration effected by the (+)-forms of methyl esters of ABA (214) , 8'-methyl (370) and 8'-methylene ABA (357) are compared. The structures are as follows: [drawing 13] Seed Germination\nThe transpiration rate of 6 to 10 day old wheat seedlings (Triticum aestivum L. cv Katepwa) was measured as previously described (Rose et al.^7, 1996 incorporated herein by reference). Antitranspirant activity of the analogs (prepared as a 1% ethanol solution in water) was measured over a range of concentrations to determine the concentration where the transpiration rate of the wheat seedling is reduced by 50%. The transpiration rate (μMol H2 O/cm^2 s) was calculated and then given as a percentage of the initial transpiration rate of the plant (typically 0.28-0.35 μMol H2 O/cm^2 s), corrected for the effect of the control (1% ethanol).\nABA is a key signal molecule involved in regulating transpiration in plants. We had previously determined that esters were as active as acids in this assay (data not shown) so the effect of the methyl esters of natural ABA (+)-^8 '-methylene ABA and 8'-methyl ABA on transpiration in intact wheat seedlings was compared three hours after application. […] The difference in responses may be due to reduced uptake of the 8'-methyl ABA in the intact wheat seedling."}, "[1]": {"tested_on": "suspension-cultured corn cells (var. Black Mexican Sweet)", "assay": "Growth inhibition of suspension-cultured corn cells", "type": "cell-based, corn (maize)", "details": "for growth inhibition activity (comparison in words): four days; for inhibition at 0.33 µM / IC50: Zea mays, 96 h; for inhibition at 0.33 µM: four day period, read-out: growth inhibition relative to the control; for IC50: four days after addition, read-out: concentration required for 50% inhibition of growth"}, "[2]": {"tested_on": "Black Mexican Sweet maize cells", "assay": "Metabolites from maize suspension cells", "type": "in vitro ADME", "details": "100 μM, 90 h", "protocol": "Eighteen g of Black Mexican Sweet maize cells were subcultured into a 1L flask containing 500 ml sterile medium as described previously (Balsevich et al.^6, 1994). […] At the end of the culture period, the cells were removed by filtration. The filtrate was frozen until processed for isolation.\nThe metabolites were extracted from the culture filtrate by a chromatographic procedure using Supelco Amberlite XAD-2 resin (Balsevich et al. 6, 1994). The crude product isolated from the resin was partially purified by preparative TLC (silica gel 60 GF254, 20 cm×20 cm×1 mm, toluene-EtOAc-HOAc 25:15:2 as eluent), giving two isomeric acids, The acids were separately reacted with diazomethane, and then further purified by HPLC as their methyl esters yielding approx. 0.5 mg of each metabolite."}, "[3]": {"tested_on": "suspension-cultured corn cells", "assay": "Medium pH changes in corn cell suspension cultures", "type": "cell-based, corn (maize)", "details": "10 μM solution", "protocol": "Cell growth was measured by the change in fresh weight over a 4-day period, as previously described (Balsevich et al.^6, 1994). The medium pH changes associated with addition of (+)-ABA and (+)-8'-methylene ABA were also measured as described by Balsevich et al.^6, (1994)."}, "excised wheat embryos [4]": {"tested_on": "excised wheat embryos", "assay": "Wheat embryo germination inhibition", "type": "in vivo, Triticum aestivum L. cv. Clark's Cream", "details": "for concentration giving equivalent germination inhibition: (+)-8'-methylene ABA versus (+)-ABA (FIG. 12)", "protocol": "Grains of soft white wheat (Triticum aestivum L. cv. Clark's Cream) were used. For bioassay, embryos with some adhering endosperm and pericarp attached were cut from the grains with a razor blade. Analogs were prepared by dissolving into a minimal amount of DMSO to prepare a 0.1 M solution, and then diluted with […], pH 5.8, to 0.01, 0.1, 1, 10 and 100 μM. For each analog concentration six replicate germination assays were conducted on 10 embryos each at 30° C. Embryos were incubated in Petri dishes (100×15 mm) containing 6 ml solution."}, "[5]": {"assay": "ABA-like (hormonal) activity in various assays", "parameters": "species or system plants", "details": "wheat and cress"}, "[6]": {"tested_on": "ABA-responsive cor6.6 promoter", "assay": "ABA-inducible gene expression (GUS activity) in transgenic tobacco seedlings containing Pcor6.6-GUS", "type": "in vivo, transgenic tobacco (promoter from Arabidopsis thaliana)", "details": "24 hours; for induction of GUS activity: 200 micromolar, relative to untreated control", "text": "The results shown are an average of duplicate assays on samples containing 34 seedlings.\nThe results shown are an average of duplicate samples containing cotyledons from 34 seedlings."}, "corn cells": {"tested_on": "corn cells", "assay": "Depletion (persistence) from corn cell culture media", "type": "in vitro ADME, corn (maize)", "protocol": "Ethanolic stock solutions of (+)-ABA, (+)-8'-methylene ABA and (+)-8'-methyl ABA were added to flasks containing 0.2 g of corn cells and 10 ml of culture medium to obtain a final concentration of 100 μM of hormone or analog. Aliquots of medium (100 μl) were removed at intervals and analyzed for ABA or ABA analog content by HPLC as described previously (Balsevich et al.^6, 1994). Each compound was inoculated into 3 flasks and duplicate samples were removed at the indicated time points. The corn cells were used 1 or 2 days after subculturing."}, "cress seed": {"tested_on": "cress seed", "assay": "Cress seed germination inhibition", "type": "in vivo", "details": "for germination of cress seed: 5 μM (printed 5 M)", "protocol": "The experimental conditions were as follows: 100 seeds are placed on a 9 cm Whatman no. 1 filter paper in a petri dish and treated with 5 ml of solution.\nThe final concentration of the ethanol in the assay solutions was <0.05%. Assays were conducted with 100 seeds in each Petri dish and performed in triplicate. The germination measurements were based on the growth of the primary root. A seed was considered germinated when the radical was approximately the same length as the seed."}, "[7]": {"tested_on": "suspension-cultured corn cells (var. Black Mexican Sweet)", "details": "Balsevich et al 1994, cited from earlier work"}, "excised wheat embryos [8]": {"tested_on": "excised wheat embryos", "details": "Walker-Simmons et al., 1992, cited from earlier work"}, "[9]": {"tested_on": "suspension-cultured corn cells", "details": "Balsevich et al 1994, cited from earlier work"}}, "note": "Entries after “also recorded” stand apart in the source; their conditions may differ. Like-named read-outs stand apart in the source and are kept apart here.", "data": [{"smiles": "C=CC1(C)CC(=O)C=C(C)C1(O)/C=C/C(C)=C\\C(=O)OC", "note": "(single isomer, unassigned; (+)) [(+)-9'-ethylene methyl ABA]", "values": [{"measurement": "reduction in transpiration", "setting": "wheat seedlings", "value": "Equivalent high activity"}]}, {"smiles": "C#CC1(C)CC(=O)C=C(C)C1(O)C=CC(C)=CC(=O)O", "note": "(stereo not shown) [8'-acetylene ABA]", "values": [{"measurement": "growth inhibition activity (comparison in words)", "setting": "[1]", "value": "more potent than ABA"}]}, {"smiles": "C=C[C@@]1(C)CC(=O)C=C(C)[C@]1(O)/C=C/C(C)=C\\C(=O)O", "note": "[(+)-8'-methylene ABA, (+) 8'-methyleneabscisic acid]", "values": [{"measurement": "metabolites identified", "setting": "[2]", "value": "two isomeric epoxides"}, {"measurement": "reduction of transpiration (summary in words)", "setting": "wheat seedlings", "value": "more effective than ABA"}, {"measurement": "inhibition at 0.33 µM", "setting": "[1]", "value": 64, "unit": "%"}, {"measurement": "IC50", "setting": "[1]", "value": "< 0.33", "unit": "µM"}, {"measurement": "growth inhibition activity (comparison in words)", "setting": "[1]", "value": "stronger growth inhibition activity than (+)-ABA at all tested concentrations; also recorded: more effective than ABA"}, {"measurement": "growth inhibition activity (comparison in words)", "setting": "[1]; listed as 8'-methylene ABA", "value": "the strongest growth inhibition produced by any ABA analog so far"}, {"measurement": "growth inhibition activity (comparison in words)", "setting": "[1]; listed as (+)-methylene ABA", "value": "significantly stronger than either (+)-ABA or (+)-8'-methyl ABA"}, {"measurement": "shift in pH of the medium", "setting": "[3]", "value": "causes a comparable shift in pH as that produced by ABA"}, {"measurement": "shift in pH of the medium", "setting": "[3]; listed as (+)- 8'-methylene ABA", "value": "causes as great a shift in pH as ABA"}, {"measurement": "concentration giving equivalent germination inhibition", "setting": "excised wheat embryos [4]", "value": 1.0, "unit": "µM"}, {"measurement": "times more effective than natural ABA, germination inhibition of excised wheat embryos", "setting": "excised wheat embryos [4]; embryos from dormant wheat grains (FIG. 12)", "value": "at least 10 times"}, {"measurement": "germination inhibitory activity, wheat embryos (in words)", "setting": "excised wheat embryos [4]; in vivo", "value": "more active than (+)-ABA; also recorded: most potent compound over all concentrations and time points; also recorded: more effective than ABA"}, {"measurement": "germination inhibition in seeds of both a monocot and a dicot", "setting": "[5]", "value": "more effective germination inhibitor in seeds of both a monocot and a dicot"}, {"measurement": "induction of ABA-responsive gene expression (in words)", "setting": "[6]; 100 μM", "value": "slightly weaker inducer than ABA; also recorded: highly effective in inducing ABA-responsive gene expression"}, {"measurement": "induction of GUS activity", "setting": "[6]", "value": "strongly induced GUS activity"}, {"measurement": "time by which 50% had disappeared from the medium", "setting": "corn cells; corn, corn cell culture medium, 100 µM", "value": "~100", "unit": "h"}, {"measurement": "germination inhibition of cress seed", "setting": "cress seed; 1 μM", "value": "more potent than ABA"}, {"measurement": "germination of cress seed", "setting": "cress seed", "value": "does not germinate"}, {"measurement": "germination of cress seed", "setting": "cress seed; listed as 8'-Methylene analog", "value": "remain dormant"}, {"measurement": "germination inhibition of cress seed (summary in words)", "setting": "cress seed; in vivo", "value": "more effective than ABA"}]}, {"smiles": "CC1=CC(=O)CC(C)(C)[C@@]1(O)/C=C/C(C)=C\\C(=O)O", "note": "[(+)-ABA, abscisic acid]", "values": [{"measurement": "inhibition at 0.33 µM", "setting": "[1]", "value": 17, "unit": "%"}, {"measurement": "IC50", "setting": "[1]", "value": "~10", "unit": "µM"}, {"measurement": "growth inhibition (literature)", "setting": "[7]", "value": "inhibits growth of maize suspension-cultured cells over a four day period"}, {"measurement": "growth inhibition (literature)", "setting": "[7]; listed as Natural ABA", "value": "causes growth inhibition"}, {"measurement": "germination inhibitory activity, wheat embryos (literature)", "setting": "excised wheat embryos [8]", "value": "equally effective in inhibiting germination"}, {"measurement": "germination inhibitory activity, wheat embryos (literature)", "setting": "excised wheat embryos [8]; listed as ABA", "value": "both enantiomers of ABA were equally effective"}, {"measurement": "concentration giving equivalent germination inhibition", "setting": "excised wheat embryos [4]", "value": 10, "unit": "µM"}, {"measurement": "shift (elevation) in pH of the medium (literature)", "setting": "[9]; listed as Natural ABA", "value": "causes a transient elevation of pH of the corn cell culture medium; also recorded: causes a shift in the pH of the medium of cultured corn cells"}, {"measurement": "time of maximum of transient elevation of medium pH", "setting": "[9]; after ABA addition", "value": "about 6 h"}, {"measurement": "induction of GUS activity", "setting": "[6]", "value": "strongly induced GUS activity"}, {"measurement": "time by which 50% had disappeared from the medium", "setting": "corn cells; initial 100 μM, corn cell culture (FIG. 10)", "value": "≤ 24", "unit": "h"}, {"measurement": "germination of cress seed", "setting": "cress seed", "value": "begins to germinate"}]}, {"smiles": "CC1=CC(=O)CC(C)(C)[C@]1(O)/C=C/C(C)=C\\C(=O)O", "note": "[(-)-ABA]", "values": [{"measurement": "germination inhibitory activity, wheat embryos (literature)", "setting": "excised wheat embryos [8]", "value": "equally effective in inhibiting germination"}, {"measurement": "shift (elevation) in pH of the medium (literature)", "setting": "[9]", "value": "only weakly"}]}, {"smiles": "COC(=O)/C=C(C)\\C=C\\[C@@]1(O)C(C)=CC(=O)CC1(C)C", "note": "[compound 214]", "values": [{"measurement": "reduction in transpiration", "setting": "wheat seedlings", "value": "Equivalent high activity"}, {"measurement": "EC50", "setting": "wheat seedlings; methyl ester, unit M", "value": "25 to 50", "unit": "µM"}]}, {"smiles": "C=C[C@@]1(C)CC(=O)C=C(C)[C@]1(O)/C=C/C(C)=C\\C(=O)OC", "note": "[compound 357, (+) Methyl 8'-methyleneabscisate]", "values": [{"measurement": "EC50", "setting": "wheat seedlings; methyl esters", "value": "5 to 10", "unit": "µM"}, {"measurement": "reduction of transpiration (summary in words)", "setting": "wheat seedlings", "value": "most active analog"}]}, {"smiles": "CC[C@@]1(C)CC(=O)C=C(C)[C@]1(O)/C=C/C(C)=C\\C(=O)OC", "note": "[compound 370]", "values": [{"measurement": "EC50", "setting": "wheat seedlings; methyl esters", "value": 100, "unit": "µM"}, {"measurement": "reduction of transpiration (summary in words)", "setting": "wheat seedlings", "value": "relatively weak in this assay"}, {"measurement": "% transpiration effect (comparison in words)", "setting": "wheat seedlings; methyl esters, (+)-forms, 10 μM, 3 hours (FIG. 4)", "value": "not as active as the vinyl analog"}]}]}
